Test results published in patent US20250064886A1, “CARDIOVASCULAR AND CEREBROVASCULAR DRUG AND USE THEREOF” (HANGZHOU ADAMERCK PHARMLABS INC., priority 2021, published 2025).
Marks after values point to notes of the source that are not given here.

Tests used:
[1] = test system: vascular endothelial injury induced thrombosis model in zebrafish; assay: Preventative effect on vascular endothelial injury induced thrombosis, ponatinib zebrafish model (Example 1); format: in vivo; details: 4.00 ng/tail injected
Method: Experimental method: 420 tails of 5 dpf wild type AB strain zebrafish were randomly selected and placed in a six-well plate, with 30 fish per well (experimental group). The fish were injected with compound (1), compound (2), compound (3), compound (4), compound (5), compound (6), compound (7), compound (8), compound (9), compound (10), and compound (11) (structural formula shown in Table 1) at a dose of 4.00 ng/tail, with positive control drug acetylsalicylic acid being administered by dissolving it in water at a concentration of 30.0 µg/mL. Normal control group (i.e. zebrafish treated with standard diluted water) and model control group were set up, with a capacity of 3 mL per well (experimental group). Except for normal control group, the remaining experimental groups were all given Punatinib by dissolving it in water to induce vascular endothelial injury induced thrombosis model in zebrafish. The zebrafish were stained with o-dianisidine after co-treatment with ponatinib and samples for a period of time under incubation conditions at 28° C.
After staining, 10 zebrafish in each group were randomly selected and photographed under the microscope, and the intensity of cardiac erythrocyte staining in zebrafish was analyzed using NIS-Elements D 3.20 advanced image-processing software, and the samples were evaluated for the preventative effect on vascular endothelial injury induced thrombosis by the statistical results of cardiac erythrocyte staining intensity.
The preventative effect on thrombosis is calculated as follows: […]
Statistical analysis was performed using SPSS software, and p<0.05 indicates significant differences

[2] = test system: iron content in Erastin-induced neuronal cells; assay: Iron content (PGSK probe) in Erastin-induced neuronal cells (Example 8); format: cell-based, rat; details: Erastin 50 μM
Method: (§1) Experimental method: Primary neuron cells were incubated in a medium containing Erastin (final concentration of 50 μM) for 24 hours, and then incubated in a medium containing different concentrations of the test drug and Erastin (final concentration of 50 μM) for another 24 hours. After incubation, Real time PCR was used to detect mRNA expression of GPX4 in each group of cells, CCK8 assay was used to detect cell viability in each group of cells, C11-BODIPY probe method was used to detect intracellular lipid ROS levels in each group of cells, and PGSK probe method was used to detect iron content in cells.
(§2) The experimental data were expressed in means±SD, and statistical differences between groups were determined using one-way ANOVA and Tukey's test, with p-values less than 0.05 considered significant.
After incubation, the PGSK probe method was used to detect the intracellular iron content. The results were presented as Mean±SD. Compared with the control group, ***p<0.0001; Compared with the model group, #p<0.05, ##p<0.01.

[3] = test system: vascular inflammation in high-glucose and high-fat zebrafish; assay: Regressive effect on vascular inflammation in high-glucose and high-fat zebrafish (Example 9); format: in vivo
Method: Experimental method: 360 tails of 5 dpf macrophage fluorescent zebrafish were randomly selected and placed in beakers with 30 tails in each beaker, compound (1), compound (3), and compound (5) were given intravenously, and the positive control group was given atorvastatin calcium by dissolving it in water at a concentration of 30 μg/mL, while the normal control group (fish farming water-treated zebrafish) and the model control group were set up, and the volume of each beaker (experimental group) was 25 mL. Except for the normal control group, all other groups were given high-lipids and high-sucrose feed by dissolving it in water. Compound (1), compound (3) and compound (5) group were co-treated with high-lipids and high-sucrose feed for 30 h. The treatment was carried out up to 9 dpf, and 10 zebrafish were randomly selected from each experimental group to collect the intensity of the macrophage fluorescence within the tail vein and around the tail vein of the zebrafish under fluorescence microscope, and the results of the statistical analysis were used to evaluate the regressive effect of compound (1), compound (3), compound (5) on zebrafish vascular inflammation in the high sugar and high fat model.

[4] = test system: Erastin-induced neuronal cells; assay: Cell viability (CCK8) of Erastin-induced neuronal cells (Example 8); format: cell-based, rat; details: Erastin 50 μM
Method: as §1, §2
After incubation, the CCK8 experiment was used to detect the cell viability of each group of cells. The results were presented as Mean±SD. Compared with control group, ***p<0.0001. Compared with model control group, ^#P<0.05, ^##P<0.01.

[5] = test system: GPX4 mRNA; assay: GPX4 mRNA expression (real time PCR) in Erastin-induced neuronal cells (Example 8); format: cell-based, rat; details: Erastin 50 μM
Method: as §1, §2
After incubation, real time PCR was used to detect the mRNA expression of GPX4 in each group of cells. The results were presented as Mean±SD. Compared with the control group, ***p<0.0001; Compared with the model group, #p<0.05, […].

[6] = test system: lipid ROS levels in Erastin-induced nerve cells; assay: Lipid ROS levels (C11-BODIPY probe) in Erastin-induced nerve cells (Example 8); format: cell-based, rat; details: Erastin 50 μM
Method: as §1, §2
After incubation, the C11-BODIPY probe method was used to detect the lipid ROS levels in each group of cells. The results were presented as Mean±SD. Compared with the control group, ***p<0.0001; compared with the model group, #p<0.05, ##p<0.01.

Q: With `CC(=O)N[C@H](CSCC1OC2OC3C(CSC[C@@H](NC(C)=O)C(=O)[O-])OC(OC4C(CSC[C@@H](NC(C)=O)C(=O)[O-])OC(OC5C(CSC[C@@H](NC(C)=O)C(=O)[O-])OC(OC6C(CSC[C@@H](NC(C)=O)C(=O)[O-])OC(OC7C(CSC[C@@H](NC(C)=O)C(=O)[O-])OC(OC8C(CSC[C@@H](NC(C)=O)C(=O)[O-])OC(OC1C(O)C2O)C(O)C8O)C(O)C7O)C(O)C6O)C(O)C5O)C(O)C4O)C(O)C3O)C(=O)[O-].[Na+].[Na+].[Na+].[Na+].[Na+].[Na+].[Na+]` (some centres unmarked) [Compound (5)] as the compound, how does the “Preventative effect on thrombosis (%)” value [1] read?
A: 64%

Q: What about the “Cardiac erythrocyte staining intensity (pixels, mean ± SE)” value ([1]; n = 10) of the same compound?
A: 4340 ± 255 pixels

Q: And the “Cardiac erythrocyte staining intensity (pixels, mean ± SE)” value ([1]; n = 10, listed as compound (5))?
A: 4340 pixels

Q: What about the “Iron content (PGSK probe)” value ([2]; 1 μM, control = 100, PGSK fluorescence, weaker = more iron) of the same compound?
A: 56.75 ± 9.31^

Q: And the “Iron content (PGSK probe)” value ([2]; 2.5 μM)?
A: 68.32 ± 6.01^

Q: What about the “Iron content (PGSK probe)” value ([2]; 5 μM) of the same compound?
A: 72.65 ± 7

Q: And the “Iron content (PGSK probe)” value ([2]; 10 μM)?
A: 76.52 ± 7.86^#

Q: And the “Iron content (PGSK probe)” value ([2]; 20 μM)?
A: 80.28 ± 6.96^##

Q: What about the “Iron content (PGSK probe)” value ([2]; 40 μM) of the same compound?
A: 87.37 ± 9.57^##

Q: And the “Anti-inflammatory effect (%)” value ([3]; 27.8 ng/tail intravenous)?
A: 38*** %

Q: And the “Fluorescence intensity of perivascular macrophage (pixels, Mean ± SE)” value (shortened to “Fluorescence intensity … (pixels, Mean ± SE)”) ([3]; 27.8 ng/tail intravenous)?
A: 113678 ± 4811 pixels

Q: And the “Anti-inflammatory effect (%)” value ([3]; 83.3 ng/tail intravenous)?
A: 36*** %

Q: And the “Fluorescence intensity … (pixels, Mean ± SE)” value ([3]; 83.3 ng/tail intravenous)?
A: 118039 ± 9198 pixels

Q: What about the “Anti-inflammatory effect (%)” value ([3]; 250 ng/tail intravenous) of the same compound?
A: 37*** %

Q: And the “Fluorescence intensity … (pixels, Mean ± SE)” value ([3]; 250 ng/tail intravenous)?
A: 115627 ± 5934 pixels

Q: And the “Cell viability (%)” value ([4]; 1 μM, 24 h, control = 100, Mean±SD)?
A: 58.95 ± 7.21%

Q: And the “Cell viability (%)” value ([4]; 2.5 μM)?
A: 62.63 ± 7.82%

Q: And the “Cell viability (%)” value ([4]; 5 μM)?
A: 67.38 ± 6.73%

Q: What about the “Cell viability (%)” value ([4]; 10 μM) of the same compound?
A: 73.74 ± 7.33^# %

Q: And the “Cell viability (%)” value ([4]; 20 μM)?
A: 79.85 ± 6.34^## %

Q: And the “Cell viability (%)” value ([4]; 40 μM)?
A: 84.2 ± 4.71^## %

Q: What about the “Expression of GPX4 mRNA” value ([5]; 1 μM, control about 1.00, Mean±SD) of the same compound?
A: 0.4777 ± 0.07^

Q: And the “Expression of GPX4 mRNA” value ([5]; 2.5 μM)?
A: 0.5373 ± 0.08^

Q: What about the “Expression of GPX4 mRNA” value ([5]; 5 μM) of the same compound?
A: 0.6033 ± 0.06^#

Q: And the “Expression of GPX4 mRNA” value ([5]; 10 μM)?
A: 0.6942 ± 0.01^##

Q: What about the “Expression of GPX4 mRNA” value ([5]; 20 μM) of the same compound?
A: 0.7693 ± 0.1^##

Q: And the “Expression of GPX4 mRNA” value ([5]; 40 μM)?
A: 0.8368 ± 0.07^##

Q: What about the “Lipid ROS levels (%)” value ([6]; 1 μM, control = 100, Mean±SD) of the same compound?
A: 145.89 ± 5.33%

Q: What about the “Lipid ROS levels (%)” value ([6]; 2.5 μM) of the same compound?
A: 141.47 ± 6.53%

Q: And the “Lipid ROS levels (%)” value ([6]; 5 μM)?
A: 133.09 ± 9.69%

Q: What about the “Lipid ROS levels (%)” value ([6]; 10 μM) of the same compound?
A: 128.99 ± 9.84^# %

Q: What about the “Lipid ROS levels (%)” value ([6]; 20 μM) of the same compound?
A: 122.71 ± 8.5^## %

Q: And the “Lipid ROS levels (%)” value ([6]; 40 μM)?
A: 114.82 ± 7.13^## %

Q: How did the “Anti-inflammatory effect (%)” value ([3]; 30 μg/mL in water) turn out when `CC(C)c1c(C(=O)Nc2ccccc2)c(-c2ccccc2)c(-c2ccc(F)cc2)n1CC[C@@H](O)C[C@@H](O)CC(=O)[O-].CC(C)c1c(C(=O)Nc2ccccc2)c(-c2ccccc2)c(-c2ccc(F)cc2)n1CC[C@@H](O)C[C@@H](O)CC(=O)[O-].[Ca+2]` [Atorvastatin calcium, atorvastatin calcium, reference compound] was run?
A: 42*** %

Q: And the “Fluorescence intensity … (pixels, Mean ± SE)” value ([3]; 30 μg/mL in water, n = 10)?
A: 106352 ± 6663 pixels
